# Where two headings read alike, the source gives them in different places.
# Experiments:
# Vibrio cholerae = details: cited from earlier work
# Rv0091 = Rv0091 (Mycobacterium tuberculosis, UniProt P9WJM3); test: Dissociation constants; assay type: biochemical
# [1] = tested on: auto-inducer (AI-2) production; details: cited from earlier work
# E. coli = details: cited from earlier work
# [2] = tested on: M. tuberculosis strain mc^26230; assay type: cell-based, Mycobacterium tuberculosis; details: disc diffusion, 96 h, 37 °C
# [3] = tested on: M. smegmatis strain mc^2155; test: Disc-diffusion growth inhibition assay; assay type: cell-based, Mycobacterium smegmatis; details: 96 h, 37 °C
# H. pylori (J99) = test: Antibacterial activity assay in liquid culture; assay type: cell-based, Helicobacter pylori
# Rv0091, sequence (P9WJM3 whole entry, looked up): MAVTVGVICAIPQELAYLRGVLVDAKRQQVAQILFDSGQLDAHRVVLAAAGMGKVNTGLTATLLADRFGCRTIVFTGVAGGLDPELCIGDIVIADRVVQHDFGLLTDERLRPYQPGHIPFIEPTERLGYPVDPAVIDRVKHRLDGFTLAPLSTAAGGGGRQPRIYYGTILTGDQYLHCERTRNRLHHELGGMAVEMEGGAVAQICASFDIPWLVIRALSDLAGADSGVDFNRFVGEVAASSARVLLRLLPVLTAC
smiles,measurement,setting,value
CCCCSCC1CN(Cc2c[nH]c3c(N)ncnc23)C[C@H]1O (stereo partly drawn) [Compound 13],toxicity to growth,Vibrio cholerae,not toxic
same,weaker binding than HT-DADMe-ImmA,Rv0091; ratio of dissociation constants,15 times
same,effect on production of auto-inducer (AI-2),[1],inhibited production
same,toxicity to growth,E. coli,not toxic
CCCCCCSC[C@H]1CN(Cc2c[nH]c3c(N)ncnc23)C[C@@H]1O [Compound 14],zone of clearance,[2]; 1000 μg/mL,small zone of clearance
same,bound tighter than MT-DADMe-ImmA (11),"Rv0091; ratio of Ki values, Table 1",17 times
same,zone of clearance,[3]; 1000 μg/mL,small zone of clearance
same,more potent than tetracycline,H. pylori (J99),6 times
same,IC50 (antibacterial activity; MIC50 in methods),"H. pylori (J99); 72 h, 37 °C, OD600",0.013 ± 0.0018 µg/mL
CSC[C@@H]1CN(Cc2c[nH]c3c(N)ncnc23)C[C@H]1O [Compound 20],activity toward Rv0091,Rv0091; at concentrations of ≤400 μM,no activity
"NC[C@H]1O[C@H](O[C@H]2[C@H](O)[C@@H](O[C@H]3O[C@H](CO)[C@@H](O)[C@H](N)[C@H]3O)[C@H](N)C[C@@H]2N)[C@H](O)[C@@H](O)[C@@H]1O [Kanamycin, reference compound]",zone of clearance,"[2]; 100 μg/mL, antibiotic control",large zones of clearance
same,zone of clearance,"[3]; 100 μg/mL, antibiotic control",large zones of clearance

# Reference: paper PMC6019266 (Biochemistry, 2017)
